# Measurements taken from ChEMBL document CHEMBL1201862, “PubChem BioAssay data set” (2004).
#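 48-hour exposure; five concentrations; linearly interpolated endpoints. GI50: concentration for 50% inhibition of growth.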 The source made the active and inactive calls. Cut-off read from the data, not from the text of the source: active = GI50 up to about 1.1 µM and inactive = higher.
# What was measured:
# Assay in all cases: NCI tumour cell line growth inhibition, 48 h
# 786-0 = test system: 786-0
# A498 = test system: A498
# A549 = test system: A549
# ACHN = test system: ACHN
# BT-549 = test system: BT-549
# CAKI-1 = test system: CAKI-1
# CCRF-CEM = test system: CCRF-CEM
# COLO 205 = test system: COLO 205
# DU-145 = test system: DU-145
# EKVX = test system: EKVX
# HCC 2998 = test system: HCC 2998
# HCT-116 = test system: HCT-116
# HCT-15 = test system: HCT-15
# HL-60 = test system: HL-60
# HOP-62 = test system: HOP-62
# HOP-92 = test system: HOP-92
# HT-29 = test system: HT-29
# Hs-578T = test system: Hs-578T
# IGROV-1 = test system: IGROV-1
# K562 = test system: K562
# KM12 = test system: KM12
# LOX IMVI = test system: LOX IMVI
# M14 = test system: M14
# MCF7 = test system: MCF7
# MDA-MB-231 = test system: MDA-MB-231
# MDA-MB-435 = test system: MDA-MB-435
# MDA-N = test system: MDA-N
# MOLT-4 = test system: MOLT-4
# Malme-3M = test system: Malme-3M
# NCI-H226 = test system: NCI-H226
# NCI-H23 = test system: NCI-H23
# NCI-H460 = test system: NCI-H460
# NCI-H522 = test system: NCI-H522
# NCI/ADR-RES = test system: NCI/ADR-RES
# OVCAR-3 = test system: OVCAR-3
# OVCAR-4 = test system: OVCAR-4
# OVCAR-5 = test system: OVCAR-5
# OVCAR-8 = test system: OVCAR-8
# PC-3 = test system: PC-3
# RPMI-8226 = test system: RPMI-8226
# RXF 393 = test system: RXF 393
# SF-268 = test system: SF-268
# SF-295 = test system: SF-295
# SF-539 = test system: SF-539
# SK-MEL-28 = test system: SK-MEL-28
# SK-MEL-2 = test system: SK-MEL-2
# SK-MEL-5 = test system: SK-MEL-5
# SK-OV-3 = test system: SK-OV-3
# SN12C = test system: SN12C
# SNB-19 = test system: SNB-19
# SNB-75 = test system: SNB-75
# SR = test system: SR
# SW-620 = test system: SW-620
# T47D = test system: T47D
# TK-10 = test system: TK-10
# U-251 = test system: U-251
# UACC-257 = test system: UACC-257
# UACC-62 = test system: UACC-62
# UO-31 = test system: UO-31
structure (smiles),measurement,setting,value
CC(C)(C)c1cc(C(C)(C)C)c2c(c1O)OC(=O)CS2,GI50,786-0,6.07 µM (inactive)
same,GI50,A498,13 µM (inactive)
same,GI50,A549,3.59 µM (inactive)
same,GI50,ACHN,3.96 µM (inactive)
same,GI50,BT-549,8.32 µM (inactive)
same,GI50,CAKI-1,5.9 µM (inactive)
same,GI50,CCRF-CEM,4.17 µM (inactive)
same,GI50,COLO 205,2.99 µM (inactive)
same,GI50,DU-145,15.7 µM (inactive)
same,GI50,EKVX,4.31 µM (inactive)
same,GI50,HCC 2998,3.03 µM (inactive)
same,GI50,HCT-116,3.6 µM (inactive)
same,GI50,HCT-15,3.66 µM
same,GI50,HL-60,3.62 µM (inactive)
same,GI50,HOP-62,7.13 µM (inactive)
same,GI50,HOP-92,9.59 µM (inactive)
same,GI50,HT-29,4.34 µM (inactive)
same,GI50,Hs-578T,2.84 µM (inactive)
same,GI50,IGROV-1,7.1 µM (inactive)
same,GI50,K562,3.16 µM (inactive)
same,GI50,KM12,4.44 µM (inactive)
same,GI50,LOX IMVI,8.47 µM (inactive)
same,GI50,M14,7.1 µM (inactive)
same,GI50,MCF7,3.82 µM (inactive)
same,GI50,MDA-MB-231,16.2 µM (inactive)
same,GI50,MDA-MB-435,3.85 µM (inactive)
same,GI50,MDA-N,3.67 µM (inactive)
same,GI50,MOLT-4,4.61 µM (inactive)
same,GI50,Malme-3M,20.8 µM (inactive)
same,GI50,NCI-H226,8.34 µM (inactive)
same,GI50,NCI-H23,4.15 µM (inactive)
same,GI50,NCI-H460,2.75 µM (inactive)
same,GI50,NCI-H522,4.06 µM (inactive)
same,GI50,NCI/ADR-RES,4.55 µM (inactive)
same,GI50,OVCAR-3,3.69 µM (inactive)
same,GI50,OVCAR-4,5.28 µM (inactive)
same,GI50,OVCAR-5,5.85 µM (inactive)
same,GI50,OVCAR-8,5.98 µM (inactive)
same,GI50,PC-3,7.24 µM (inactive)
same,GI50,RPMI-8226,21.1 µM (inactive)
same,GI50,RXF 393,3.61 µM (inactive)
same,GI50,SF-268,5.51 µM (inactive)
same,GI50,SF-295,4.26 µM (inactive)
same,GI50,SF-539,3.72 µM (inactive)
same,GI50,SK-MEL-28,13.4 µM (inactive)
same,GI50,SK-MEL-2,6.93 µM (inactive)
same,GI50,SK-MEL-5,2.88 µM (inactive)
same,GI50,SK-OV-3,13.4 µM (inactive)
same,GI50,SN12C,5.79 µM (inactive)
same,GI50,SNB-19,5.2 µM (inactive)
same,GI50,SNB-75,1.15 µM (inactive)
same,GI50,SR,4.56 µM (inactive)
same,GI50,SW-620,6.52 µM (inactive)
same,GI50,T47D,4.56 µM (inactive)
same,GI50,TK-10,3.88 µM (inactive)
same,GI50,U-251,4.78 µM (inactive)
same,GI50,UACC-257,13.9 µM (inactive)
same,GI50,UACC-62,2.2 µM (inactive)
same,GI50,UO-31,5.73 µM (inactive)
C=CCN1C(=O)/C(=C/c2ccc(C)cc2)N=C1SC/C=C/C,GI50,786-0,29.9 µM (inactive)
same,GI50,A498,24.3 µM (inactive)
same,GI50,A549,21 µM (inactive)
same,GI50,ACHN,40.2 µM (inactive)
same,GI50,BT-549,30.4 µM (inactive)
same,GI50,CAKI-1,> 100 µM (inactive)
same,GI50,CCRF-CEM,26.7 µM (inactive)
same,GI50,COLO 205,36.5 µM (inactive)
same,GI50,DU-145,55.3 µM (inactive)
same,GI50,EKVX,27 µM (inactive)
same,GI50,HCC 2998,41.7 µM (inactive)
same,GI50,HCT-116,18.8 µM (inactive)
same,GI50,HCT-15,33.4 µM
same,GI50,HL-60,15.8 µM (inactive)
same,GI50,HOP-62,> 100 µM (inactive)
same,GI50,HOP-92,22.6 µM (inactive)
same,GI50,HT-29,29.1 µM (inactive)
same,GI50,Hs-578T,21.8 µM (inactive)
same,GI50,IGROV-1,51.6 µM (inactive)
same,GI50,K562,25.9 µM (inactive)
same,GI50,KM12,27.8 µM (inactive)
same,GI50,LOX IMVI,19.6 µM (inactive)
same,GI50,M14,45.6 µM (inactive)
same,GI50,MCF7,29.4 µM (inactive)
same,GI50,MDA-MB-231,51.5 µM (inactive)
same,GI50,MDA-MB-435,34.4 µM (inactive)
same,GI50,MDA-N,22.8 µM (inactive)
same,GI50,MOLT-4,14.8 µM (inactive)
same,GI50,Malme-3M,32.1 µM (inactive)
same,GI50,NCI-H226,> 100 µM (inactive)
same,GI50,NCI-H23,31.1 µM (inactive)
same,GI50,NCI-H460,40.3 µM (inactive)
same,GI50,NCI-H522,29 µM (inactive)
same,GI50,NCI/ADR-RES,47.3 µM (inactive)
same,GI50,OVCAR-3,40.8 µM (inactive)
same,GI50,OVCAR-4,41.9 µM (inactive)
same,GI50,OVCAR-5,43.6 µM (inactive)
same,GI50,OVCAR-8,30.1 µM (inactive)
same,GI50,PC-3,33 µM (inactive)
same,GI50,RPMI-8226,14.5 µM (inactive)
same,GI50,RXF 393,11.5 µM (inactive)
same,GI50,SF-268,33.2 µM (inactive)
same,GI50,SF-295,36.8 µM (inactive)
same,GI50,SF-539,77.3 µM (inactive)
same,GI50,SK-MEL-28,50.6 µM (inactive)
same,GI50,SK-MEL-2,24.8 µM (inactive)
same,GI50,SK-MEL-5,22.7 µM (inactive)
same,GI50,SK-OV-3,> 100 µM (inactive)
same,GI50,SN12C,28.1 µM (inactive)
same,GI50,SNB-19,15.5 µM (inactive)
same,GI50,SNB-75,17.8 µM (inactive)
same,GI50,SR,17.2 µM (inactive)
same,GI50,SW-620,39.4 µM (inactive)
same,GI50,T47D,16.3 µM (inactive)
same,GI50,TK-10,> 100 µM (inactive)
same,GI50,U-251,27.2 µM (inactive)
same,GI50,UACC-257,32.7 µM (inactive)
same,GI50,UACC-62,39.5 µM (inactive)
same,GI50,UO-31,47.3 µM (inactive)
